Here are results for four compounds from patent US6013278A (priority 1997, dated 2000).

Data set [1] relates to BT-20 cells. The data set can be described thus: Antineoplastic activity of free and liposomal CN (viable cell number, trypan blue). As to conditions: single administration, 800 uM; listed as free CN. The format is cell-based, human. Here is the method: To determine whether this effect leads to enhanced antineoplastic activity, the antineoplastic activity of free and liposomal CN was examined in BT-20 cells. […] Control cells in the liposomal condition received the equivalent levels of liposomes without CN. Following a 24, 48 or 72 hr incubation, cells from six replicate wells were pooled and the number of viable cells determined using trypan blue and a hemocytometer.

Data set [2] has as its system cell growth. As to conditions: in vitro, cited from earlier work.
The subject of data set [3] is BT-20 human breast cancer cells. The data set can be described thus: Uptake and intracellular levels of free and bound CN and PG/Iso-PG (intracellular metabolism of free and liposomal CN). Format: in vitro ADME. As to conditions: 24 hr. The protocol:
At selected times the cells were washed (3×with PBS), trypsinized, pooled, and homogenized in 200 μl of isotonic saline. […] Antineoplaston components or their derivatives found in the supernatant are considered to be unbound or "free", while antineoplaston agents in the pellet are thought to be "bound" to protein or cellular structures easily pelleted by low gravity centrifugation. […] To better understand the time course of the intracellular fate of liposomal CN, BT-20 cells were exposed as in Example 5 to liposomal CN for 1, 2 and 4 hours.

Data set [4] deals with BT-20 cells. The data set is described as follows: Cellular uptake of free and liposomal antineoplastons into BT-20 cells (reduction of media concentration, HPLC). As to conditions: for level of uptake associated with equivalent antineoplastic activity (IC50): at IC50 concentration (~0.8 mM CN, 15 mM PN); for dependence of cellular uptake on media concentration: end of eight hour incubation; for uptake rate on second and third days / cellular uptake (qualitative): free compound; for uptake rate on second and third days: day two and three vs first day; for cellular uptake (qualitative): time course up to 72 hours.
Experimental: The time-course and concentration dependency of the cellular uptake of free and liposomally formulated antineoplaston agents in Examples 2, 3 and 4 were assayed by monitoring reductions in media concentrations. The uptake of these antineoplaston agents were examined in BT-20 human breast cancer cells.
Cellular uptake of free D- and free L-CN (3-phenylacetyl-amino-2, 6, piperidinedione) were investigated in BT-20 cells. Cells were plated in 200 μl of media (3,000 cells/well--96 well plates), and 24 or 96 hrs later the plating media was replaced with fresh media containing free CN at final concentrations of 100, 300, 500, 800 μM. The levels of CN remaining in the media were determined following 0, 2, 4, 6, 8, 24, 48 and 72 hours of incubation. When the cellular uptake of liposomal antineoplastons was assessed, the total levels of liposomes were equivalent across all levels of the test agents.
At the indicated times after the addition of the test compound, the media was harvested, centrifuged (110 ×g; 10 min; 4° C.) and the supernatant stored at -70° C. until assayed using a validated HPLC method. For each test agent, all concentrations were tested at all time points and there were six replicate wells at each time point. Media from the replicate wells was pooled for the HPLC analysis. Compound levels were determined with at least two HPLC injections and the variance between injections was less than 10%.
Cellular uptake of free PN was investigated in BT-20 cells.
Cellular uptake of liposomal CN was investigated in BT-20 cells.

In data set [5] the test system is cell growth. The data set is described as follows: In vitro dose-response studies on individual components of antineoplaston therapy (cell growth). As to conditions: Homo sapiens; free compound; cell line not stated (uptake example in BT-20); read-out: IC50 (antineoplastic activity). The format is cell-based.
Data set [6] deals with human glioblastoma (U87) cells. The data set can be described thus: Antineoplastic effect of free and liposomal AS2-1, PG and PN (cell counts). As to conditions: U-87 MG, 72 h, read-out: IC50 (concentration producing a half maximal antineoplastic effect).
The subject of another data set is U87 cells. The data set can be described thus: Cellular uptake of free and liposomal PN and PG in U87 cells.

Entries after “also recorded” stand apart in the source; their conditions may differ.

Experimental for U87 cells: Experiments with this cell line plated 3000 cells per well and following a four day interval to allow the cells to enter the exponential growth phase the test agents were added. The media was replaced on day three and cell counts were obtained at day 3 and 7.

For `O=C1CCC(NC(=O)Cc2ccccc2)C(=O)N1` (centres unmarked) [CN, 3-phenylacetyl-amino-2,6, piperidinedione], in the data set on BT-20 cells [1], the “antineoplastic activity / suppression of BT-20 cell growth” value is on record as “ineffective in suppressing BT-20 cell growth; also recorded: no antineoplastic activity”. Further, in the data set on cell growth [2] (at ~0.8 mM), the “suppression of cell growth” value was 50%. Moreover, the “antineoplastic activity on a molar basis” value in the data set on cell growth [2] (relative to other components) is reported as “most potent antineoplastic activity”. In addition, the “Uptake of CN” value in data set [3] (800 μM CN (53 pmole/cell) added) is 43.2 pmole/cell. Also, the “Free intracellular PG/Iso-PG” value in data set [3] (800 μM CN added) is 36.7 pmole/cell. In addition, the “Free intracellular CN” value in data set [3] (800 μM, ND = Not detected) is recorded as “intact CN cannot be found inside the cells”. In addition, the “cellular uptake by 72 hours” value in the data set on BT-20 cells [4] (72 hours) is on record as “approximating that produced by liposomal CN during a two hour incubation”. Moreover, in the data set on BT-20 cells [4], the “level of uptake associated with equivalent antineoplastic activity (IC50)” value is ~ 30 pmoles/cell and the “dependence of cellular uptake on media concentration” value is on record as “linearly related to media concentration”. Besides, the IC50 in the data set on cell growth [5] was ~0.8 mM.

Take `O=C1CC[C@@H](NC(=O)Cc2ccccc2)C(=O)N1` [D-CN]: in the data set on BT-20 cells [4], the “uptake rate on second and third days” value is “do not exhibit this late stage reduction in CN uptake”; the “cellular uptake (qualitative)” value was “rapidly and extensively taken up”.

Regarding `O=C1CC[C@H](NC(=O)Cc2ccccc2)C(=O)N1` [L-CN], the “cellular uptake during the first six hours” value in the data set on BT-20 cells [4] (free D-CN vs free L-CN) is recorded as “more effectively than free D-CN”. Moreover, in the data set on BT-20 cells [4], the “uptake rate on second and third days” value was “the rate of uptake is diminished on the second and third days of the incubation”; the “cellular uptake (qualitative)” value is “rapidly and extensively taken up”.

As for `O=C(O)Cc1ccccc1` [PN, phenylacetate], the IC50 (in data set [6]; in the data set with cell growth [5]) was ~15 mM throughout. The uptake per cell with U87 cells (30 mM free PN, U87 cells, 3 day) is 50 pmol; in the data set on BT-20 cells [4] (BT-20 cells, 30 mM, comparison value), ~ 55 pmole. Further, the “uptake of free compound compared (PN vs PG)” value in the data set with U87 cells (3 day interval) was “equivalent and is concentration dependent”. Moreover, the “level of uptake associated with equivalent antineoplastic activity (IC50)” value with BT-20 cells [4] is reported as ~ 30 pmoles/cell. In addition, the “dependence of cellular uptake on media concentration” value in the data set with BT-20 cells [4] is “linearly related to media concentration”. Also, the “cellular uptake (qualitative)” value in the data set on BT-20 cells [4] is “concentration- and time-dependent take up”. Moreover, the “time to completion of uptake” value in the data set on BT-20 cells [4] (high concentrations (e.g., 30 mM)) is “completed within the first two hours”. For the same compound, the figures for the cellular uptake in the data set with BT-20 cells [4] (initial media concentration 30 mM) and with BT-20 cells [4] (media concentration 3.0 mM) were ~ 54 pmoles/BT-20 cell and ~ 14 pmoles/BT-20 cell, respectively.
